This is an account of results in patent US20170209403A1, “METHOD FOR REGULATING ALDEHYDE DEHYDROGENASE 1” (National Cheng Kung University, priority 2016, published 2017).

What all share (type): cell-based, human
In assay [1] the test system is A2780 and CP70 ovarian cancer cells. In words: Sphere formation assay. To be noted: for sphere formation efficiency: control and shALDH1 cells (A2780, CP70, CP70-vector, CP70-shALDH1), 1 μM Thiostrepton or 10 μM DAPT, 10 days. The protocol:
FIGS. 1A-1F show ALDH1 regulates stemness and tumourigenic ability in ovarian cancer cells. […] A total of 1×10^3 A2780 (upper panel) and CP70 (lower panel) cells were seeded into a 96-well plate to evaluate the cells' sphere formation ability (scale bar=200 μm). DEAB was used to inhibit the reaction of ALDH1 and also served as a negative control. […] The β-actin was used as a protein loading control. The histogram represents the relative fold change of protein expression (right panel). […] A2780-ALDH1 (upper panel) and CP70-shALDH1 (lower panel) cells were seeded into 96-well plates to evaluate their sphere formation ability (scale bar=200 μm).
FIGS. 2A-2D show ALDH1 regulates stemness and tumourigenic ability through the FoxM1 and Notch1 signalling pathways. […] Representative images show spheres generated from single-cell cultures after 10 days. The lower panel depicts the relative sphere formation ratio (scale bar=200 μm). […] V: vector.
(§1) Standard sphere formation assays were performed according to Zhang et al. (Zhang, S. et al. Cancer Res., 68, 4311-4320.) with minor modification. The cells (1×10^3) were resuspended in serum-free DMEM/F12 medium supplemented with 5 μg/ml insulin (Sigma), 20 ng/ml human recombinant epidermal growth factor (EGF; Invitrogen, Life Technologies, Carlsbad, Calif.) and 10 ng/ml basic fibroblast growth factor (bFGF; Invitrogen) in ultra-low attachment plates (Corning Costar, Corning, N.Y.). Spheres that arose within 1-2 weeks were counted. Colony diameters >50 μm were counted as a single-positive colony. The middle field was chosen for counting of spheres, and two fields for each plate were counted under a dissecting microscope. For all sphere formation experiments, a minimum of eight wells was run for each condition. All data represent the mean ±SEM of three separate experiments and at least 24 different fields.
(§2) An Aldefluor® kit (StemCell Technologies) was used to assess ALDH activity in the ovarian cancer cell lines, as previously described (Saw, Y. T. et al. (2012) BMC Cancer, 12, 329.). In brief, 1×10^6 cells were incubated in Aldefluor® assay buffer containing a 1.5 μM ALDH substrate for 30 min at 37° C. Each sample was treated with 50 μM of DEAB, and used as a negative control. Prior to analysis, cells were stained with […] of propidium iodide to evaluate their viability. The fluorescence intensity of the stained cells was analysed using a FACSAria cell sorter Flow Cytometer (BD Biosciences). The reaction with DEAB was used to define the baseline for the assay. The ALDH activity of a sample was determined to be ‘high’ or ‘low’ based on the fluorescence intensity beyond or below the threshold defined by the reaction with DEAB. The cells having high or low ALDH activity are marked “-High” or “-Low” hereafter.

Assay [2] deals with ES2 cells (ES2-High, ES2-Low). In words: Sphere formation assay. To be noted: for sphere formation: ES2-High cells, different concentrations of Thiostrepton or DAPT; for decrease of sphere formation: ES2-Low cells, Thiostrepton or DAPT. The protocol: (§3) Right panel: relative fold changes of ALDH1 and FoxM1 expression compared with controls. […] Sphere formation in ES2-High cells after treatment with different concentrations of Thiostrepton or DAPT, and the relative fold changes in expression are shown (scale bar=200 μm).
as §1, §2

Assay [3] relates to ALDH1, FoxM1, Notch1, Oct-4 and Nanog expression in A2780 and CP70 cells. In words: Western blotting of ALDH1, FoxM1, Notch1 and CSC markers. Particulars: for ALDH1 expression / FoxM1 expression / Notch1 expression: A2780 and CP70 cells; for ALDH1 expression: 1 μM Thiostrepton or 10 μM DAPT; for FoxM1 expression / Notch1 expression: 1 μM Thiostrepton, 10 μM DAPT, or DEAB. A general note: Immunoblotting shows a protein as a band on a membrane.

The subject of assay [4] is ALDH1, FoxM1 and Notch-1 expression in ES2 cells. The experiment in a line: Western blotting of ALDH1, FoxM1 and Notch1. Particulars: ES2-High cells; for ALDH1 expression: Thiostrepton or DAPT; for FoxM1 expression / Notch1 expression: different concentrations of Thiostrepton or DAPT. The protocol:
as §3
The cells were lysed and then harvested using a cell lifter (Corning Costar). Protein concentrations were determined by Bio-Rad protein assay (Bio-Rad, Hercules, Calif.). Proteins were then separated by 10% sodium dodecyl sulphate-polyacrylamide gel electrophoresis and transferred to polyvinylidene difluoride membranes. Western blotting was performed using the following antibodies at the indicated dilutions: anti-ALDH1 (1:1000; BD Biosciences), anti-Oct4 (1:1000; BD Biosciences), anti-Nanog (1:1000; BD Biosciences), anti-Notch1 (1:1000; Abcam, Cambridge, UK), anti-FoxM1 (1:1000; Santa Cruz Biotechnology, Santa Cruz, Calif.) and anti-beta actin (1:5000; Sigma).

For assay [5], the system named is A2780 and CP70 ovarian cancer cells. In words: MTT cytotoxicity assay (proliferation, doubling time). More on the design: toxicity: dose or concentration left out as unconfirmed. Particulars: for cell proliferation: A2780 and CP70 derived cells, inhibitor treatment. The protocol:
The cell lines were cultured in a humidified incubator containing 95% air and 5% CO2 at 37° C. in 96-well flat-bottomed microtiter plates. After 72 h of incubation, the in vitro cytotoxic effects of treatments were determined by MTT assay (at 570 nm).
For orientation: Tetrazolium assays rely on reduction of a dye to a coloured formazan, in cell work by metabolically active cells.

For assay [6], the system named is ALDH1, FoxM1 and Notch-1 expression in ES2 cells. In words: Western blotting of ALDH1, FoxM1 and Notch1. To be noted: ES2-Low cells; Thiostrepton or DAPT.
The test system of assay [7] is ALDH1. The experiment in a line: Aldefluor assay of ALDH1 enzyme activity / ALDH1-High cell fraction. Particulars: A2780-Low and CP70-Low cells; ATRA (10 μM) or paclitaxel (60 ng/ml) for 4 days. The protocol: as §2

With `C[C@H](NC(=O)Cc1cc(F)cc(F)c1)C(=O)N[C@H](C(=O)OC(C)(C)C)c1ccccc1` [DAPT, N-[2S-(3,5-difluorophenyl)acetyl]-L-alanyl-2-phenyl-1,1-dimethylethyl ester-glycine], in assay [1], the sphere formation efficiency result is listed as “decreased sphere formation efficiency”. For the same compound, in assay [2], the sphere formation result is recorded as “decreased sphere formation in ES2-High cells in a dose-dependent manner” and the “decrease of sphere formation” value is “not observed”. In addition, the “FoxM1 expression in FoxM1-overexpressing cells” value in assay [3] (A2780-FoxM1 cells, immunoblot, DAPT) is recorded as “failed to attenuate FoxM1 expression”. Further, in assay [3] (western blotting), the ALDH1 expression result was “did not affect ALDH1 expression”; the FoxM1 expression result is “decreased Notch1 expression as well as FoxM1 expression, but to a lesser extent”; the Notch1 expression result was “decreased Notch1 expression”. Further, in assay [4], the ALDH1 expression entry was “did not affect ALDH1 expression”; the FoxM1 expression entry is “downregulated the expression levels of both FoxM1 and Notch1 in ES2-High cells in a dose-dependent manner”; the Notch1 expression entry was “downregulated the expression levels of both FoxM1 and Notch1 in ES2-High cells in a dose-dependent manner”. Further, the cell proliferation entry in assay [5] is recorded as “did not affect proliferation”. Further, the “downregulation of FoxM1 and Notch1 expression” value in assay [6] is “not observed”.

For the compound `C=C(NC(=O)C(=C)NC(=O)c1csc(C2=N[C@@H]3c4csc(n4)[C@H]4NC(=O)c5csc(n5)[C@H]([C@](C)(O)[C@@H](C)O)NC(=O)[C@H]5CSC(=N5)/C(=C/C)NC(=O)[C@H]([C@@H](C)O)NC(=O)c5csc(n5)[C@]3(CC2)NC(=O)[C@H](C)NC(=O)C(=C)NC(=O)[C@H](C)NC(=O)[C@H]([C@@H](C)CC)N[C@@H]2C=Cc3c([C@H](C)O)cc(nc3[C@H]2O)C(=O)O[C@@H]4C)n1)C(N)=O` [Thiostrepton, thiostrepton], the sphere formation efficiency result in assay [1] was “decreased sphere formation efficiency”. Moreover, in assay [2], the sphere formation entry is recorded as “decreased sphere formation in ES2-High cells in a dose-dependent manner” and the “decrease of sphere formation” value is recorded as “not observed”. Also, in assay [3] (western blotting), the ALDH1 expression entry is on record as “did not affect ALDH1 expression”, the FoxM1 expression entry is recorded as “reduced the expression not only of FoxM1 but also of Notch1” and the Notch1 expression entry is “reduced the expression not only of FoxM1 but also of Notch1”. Besides, in assay [4], the ALDH1 expression result is “did not affect ALDH1 expression”; the FoxM1 expression entry was “downregulated the expression levels of both FoxM1 and Notch1 in ES2-High cells in a dose-dependent manner”; the Notch1 expression result is “downregulated the expression levels of both FoxM1 and Notch1 in ES2-High cells in a dose-dependent manner”. Besides, the toxicity result in assay [5] (A2780 and CP70-shALDH1 cells, effect not significant) was “slight toxicity”. Also, the “downregulation of FoxM1 and Notch1 expression” value in assay [6] is “not observed”.

For the compound `CC(=O)O[C@H]1C(=O)[C@@]2(C)[C@H]([C@H](OC(=O)c3ccccc3)[C@]3(O)C[C@H](OC(=O)[C@H](O)[C@@H](NC(=O)c4ccccc4)c4ccccc4)C(C)=C1C3(C)C)[C@]1(OC(C)=O)CO[C@@H]1C[C@@H]2O` [paclitaxel], the “proportion of ALDH1-High cells” value in assay [7] was “increased proportion of ALDH1-High cells”.

As to `CCN(CC)c1ccc(C=O)cc1` [DEAB, diethylaminobenzaldehyde], the sphere formation entry in assay [1] (ALDH1-High A2780 or CP70 cells, DEAB treatment) is “suppressed sphere formation”. Moreover, in assay [3] (western blotting), the FoxM1 expression entry was “downregulated” and the Notch1 expression result is listed as “downregulated”. In assay [3] (ALDH1-High cells, DEAB treatment, western blotting), the “expression of CSC marker proteins FoxM1, Notch1, Oct 4 and Nanog” value is listed as “inhibited”. The cell proliferation entry in assay [5] is recorded as “did not affect cell proliferation”.
